Results: patent US20110065633A1, “ESTER-BASED PEPTIDE PRODRUGS” (INDIANA UNIVERSITY RESEARCH AND TECHNOLOGY CORPORATION, priority 2008, published 2011)
Where no end group is shown, it is not given here. Side-chain parts run from the residue outwards. [ ]: non-standard residue; d: D form. The star is where a group is joined. Desaminohistidyl = O=C(CCc1c[nH]cn1)*; PLA = phenyl lactic acid; Aib = CC(C)(N)C(=O)O

Legend:
GLP-1 receptor [1] = target: T1, GLP-1 receptor (Homo sapiens, UniProt P43220); experiment: Luciferase-based reporter gene assay for cAMP detection, GLP-1 receptor; format: cell-based; design: expressed in transfected cells; host or cells: HEK293; details: for Potency compared with native GLP-1: luciferase assay, in vitro
Target sequence in this assay (P43220 24-463, species assumed): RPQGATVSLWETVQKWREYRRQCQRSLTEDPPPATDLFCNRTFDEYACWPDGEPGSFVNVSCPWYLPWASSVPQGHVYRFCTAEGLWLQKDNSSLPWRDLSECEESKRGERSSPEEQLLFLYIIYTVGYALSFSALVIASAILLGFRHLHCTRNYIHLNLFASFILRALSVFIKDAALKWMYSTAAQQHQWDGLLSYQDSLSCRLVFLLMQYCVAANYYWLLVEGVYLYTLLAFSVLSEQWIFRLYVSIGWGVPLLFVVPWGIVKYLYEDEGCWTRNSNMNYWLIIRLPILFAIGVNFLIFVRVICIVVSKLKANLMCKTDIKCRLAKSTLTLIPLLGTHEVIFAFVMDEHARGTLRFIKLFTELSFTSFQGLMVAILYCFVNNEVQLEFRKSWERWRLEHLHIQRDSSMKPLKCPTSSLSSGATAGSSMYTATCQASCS

GLP-1 receptor [2] = target: T1, GLP-1 receptor; experiment: cell-based or functional assay
Target sequence in this assay (P43220 24-463 limits assumed): as the sequence (P43220 24-463, species assumed) above

glucagon receptor [3] = target: glucagon receptor (UniProt P47871); experiment: cell-based or functional assay
glucagon receptor [4] = target: glucagon receptor (UniProt P47871); experiment: cell-based or functional assay; remark: listed apart in the source
[5] = tested on: diabetes-induced obesity (DIO) mice; experiment: Blood glucose after glucose injection in DIO mice; format: in vivo; details: for blood glucose after glucose injection compared with corresponding non-prodrug form: 2 nmol/kg intraperitoneally 15 min before […] glucose, FIGS. 12, 13; for blood glucose concentrations compared with vehicle control: 15 or 70 nmol/kg intraperitoneally 60 min before […] glucose, FIG. 15
Description: Six groups of diabetes-induced obesity (DIO) mice (eight mice per group) having an initial average body weight of 49.5 g were intraperitoneally injected with 2 nmol/kg of a PBS vehicle control or one of Peptides A-E described below:
(§1) Fifteen minutes after injection with one of the compounds or with vehicle control (at time point 0), a 25% (w/v) glucose saline solution was injected at a dose of 1.5 g per kg of body weight. Blood glucose concentrations of the mice were measured at the time of injection of the compound or vehicle control, at the time of glucose injection, and at 15, 30, 60, and 120 minutes after glucose injection.
Blood glucose levels of the mice were measured as described in Example 5.
(§2) Nine groups of diabetes-induced obesity (DIO) mice (8 mice per group) having an initial average body weight of 56 g were intraperitoneally injected once and followed for one week with 15 or 70 nmol/kg of Peptides Y, Z, F-Peg, and G-Peg described below or PBS vehicle control.
as §1, with “Sixty” for “Fifteen”, “peptides” for “compounds”, “peptide” for “compound”, “control (at time point −60),” for “control,”, “injection (at time point 0),” for “injection,”

[6] = tested on: diabetes-induced obesity (DIO) mice; experiment: Body weight and food intake of DIO mice over one week; format: in vivo; details: single injection 15 or 70 nmol/kg; for total efficacy as measured over a week study: prodrug versus non-prodrug; for total food intake: FIG. 17
Description: as §2
The body weight of each mouse of each group was measured on 1, 3, 5, and 7 days after injection with the vehicle control or peptide. Total change in body weight was calculated by substracting the average body weight of a group at the time of injection with vehicle or peptide from the average body weight of the group seven days after injection. Food intake by each group of mice was measured during the course of the week as well. Total food intake was measured seven days after injection with vehicle control or peptide. […] The Ser11 substitution or the des-amino His7 reduces total efficacy.

glucagon receptor, sequence (P47871 26-477 limits assumed): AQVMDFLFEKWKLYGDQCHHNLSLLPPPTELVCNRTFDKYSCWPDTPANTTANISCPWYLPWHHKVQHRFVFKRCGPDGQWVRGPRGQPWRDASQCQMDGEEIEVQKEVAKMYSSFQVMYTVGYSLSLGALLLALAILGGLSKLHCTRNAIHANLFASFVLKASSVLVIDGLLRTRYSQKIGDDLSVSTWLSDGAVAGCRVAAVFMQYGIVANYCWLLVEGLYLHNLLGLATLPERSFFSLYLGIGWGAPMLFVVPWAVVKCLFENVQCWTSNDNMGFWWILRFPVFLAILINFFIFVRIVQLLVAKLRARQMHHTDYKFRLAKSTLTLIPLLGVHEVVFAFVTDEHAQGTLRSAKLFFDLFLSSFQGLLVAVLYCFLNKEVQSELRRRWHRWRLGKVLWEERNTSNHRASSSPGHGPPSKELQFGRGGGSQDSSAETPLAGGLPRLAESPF

F^7,GLP(8-37): aa 7-37 of GLP-1 with the His at position 7 replaced with Phe (FAEGTFTSDVSSYLEGQAAKEFIAWLVKGRG; Glucagon-like peptide 1(7-37); UniProt P01275 98-128, looked up, variant H7F)
Agonist character (GLP-1 receptor [1]): full agonist
potency of native GLP-1 (GLP-1 receptor [1]; percent of the potency of native GLP / GLP-1): 10%

G^5V^6-O-F^7,GLP(8-36)CEX (peptide)
% potency with respect to parent; before incubation (GLP-1 receptor [2]): 10.9%
% potency with respect to parent; prodrug incubated in PBS for 24 hrs before the assay (GLP-1 receptor [2]): 46%
% potency with respect to parent; prodrug incubated in PBS for 168 hrs before the assay (GLP-1 receptor [2]): 95.8%

Glucagon (6-CEX) analog E9, E16K20(lactam) (peptide)
Glucagon IC50 (glucagon receptor [3]): 42 nM
GLP-1 EC50 (GLP-1 receptor [2]): 36 nM
Glu IC50 (glucagon receptor [4]): 42 nM

Glucagon (6-CEX) analog E9, K12, E16 (peptide)
Glucagon IC50 (glucagon receptor [3]): 762 nM
Glu IC50 (glucagon receptor [4]): 762 nM

Glucagon (6-CEX) analog [PLA6, E9, E16K20(Lactam)] (peptide)
Glucagon IC50 (glucagon receptor [3]): 20 nM

HAEGTFTSDVSSYLEGQAAKEFIAWLVKGRGKRNRNNIA [GLP-oxyntomodulin, GLP-oxyntomodulin chimeric peptide]
Potency compared with native GLP-1 (GLP-1 receptor [1]): at least as potent as the native GLP-1 peptide

HO-FAEGTFTSDVSSYLEGQAAKEFIAWLVKGXPSSGAPPPS [HO—F^7,GLP(8-36)-CEX]
% potency with respect to parent (GLP-1 receptor [1]; Table 7, before incubation (0 hrs), parent drug as such): 100% (parent drug)
Potency compared with native GLP-1 (GLP-1 receptor [1]): at least as potent as the native GLP-1

HO-F^5F^6-O-F^7,GLP(8-36)-CEX (peptide)
% potency with respect to parent; before incubation (GLP-1 receptor [2]): 3.7%
% potency with respect to parent; prodrug incubated in PBS for 24 hrs before the assay (GLP-1 receptor [2]): 17.2%

H^7AEGTFTSDVSSYLEGQAAKEFIAWLVKGXPSSGAPPPS-amide [GLP(7-36)-CEX amide]
Potency compared with native GLP-1 (GLP-1 receptor [1]): approximately ten times more potent in vitro than the native GLP-1 sequence

Peptide A: prodrug of Peptide B, dipeptide d-Phe-dPhe attached via the O-terminus ({dF-dF-PLA}-[Aib]EGTFTSDVSSYLEEQAAKEFIAWLVKGRPSSGAPPPS-NH2; also: PLA bonded to D-Phe via an ester bond)
blood glucose after glucose injection compared with corresponding non-prodrug form [5]: higher than the blood glucose levels of mice injected with the corresponding non-prodrug forms

Peptide C: prodrug of Peptide B, dipeptide d-Phe-d-Val attached via the O-terminus ({dF-dV-PLA}-[Aib]EGTFTSDVSSYLEEQAAKEFIAWLVKGRPSSGAPPPS-NH2; also: PLA bonded to D-Val via an ester bond)
blood glucose after glucose injection compared with corresponding non-prodrug form [5]: higher than the blood glucose levels of mice injected with the corresponding non-prodrug forms

Peptide E: prodrug of Peptide D, d-Phe-d-Val ester-linked to Ser at position 11 (H[Aib]EGS([dV-dF])FTSDVSSYLEEQAAKEFIAWLVKGRPSSGAPPPS-NH2; N-terminus assumed; SMILES CC[C@H](C)[C@H](NC(=O)[C@H](Cc1ccccc1)NC(=O)[C@H](CCC(=O)O)NC(=O)[C@H](CCCCN)NC(=O)[C@H](C)NC(=O)[C@H](C)NC(=O)[C@H](CCC(N)=O)NC(=O)[C@H](CCC(=O)O)NC(=O)[C@H](CCC(=O)O)NC(=O)[C@H](CC(C)C)NC(=O)[C@H](Cc1ccc(O)cc1)NC(=O)[C@H](CO)NC(=O)[C@H](CO)NC(=O)[C@@H](NC(=O)[C@H](CC(=O)O)NC(=O)[C@H](CO)NC(=O)[C@@H](NC(=O)[C@H](Cc1ccccc1)NC(=O)[C@H](COC(=O)[C@H](NC(=O)[C@H](N)Cc1ccccc1)C(C)C)NC(=O)CNC(=O)[C@H](CCC(=O)O)NC(=O)C(C)(C)NC(=O)[C@@H](N)Cc1c[nH]cn1)[C@@H](C)O)C(C)C)C(=O)N[C@@H](C)C(=O)N[C@@H](Cc1c[nH]c2ccccc12)C(=O)N[C@@H](CC(C)C)C(=O)N[C@H](C(=O)N[C@@H](CCCCN)C(=O)NCC(=O)N[C@@H](CCCNC(=N)N)C(=O)N1CCC[C@H]1C(=O)N[C@@H](CO)C(=O)N[C@@H](CO)C(=O)NCC(=O)N[C@@H](C)C(=O)N1CCC[C@H]1C(=O)N1CCC[C@H]1C(=O)N1CCC[C@H]1C(=O)N[C@@H](CO)C(N)=O)C(C)C)
blood glucose after glucose injection compared with corresponding non-prodrug form [5]: higher than the blood glucose levels of mice injected with the corresponding non-prodrug forms

Peptide F-Peg: Peptide F analog with Cys at 30 covalently linked to a 40 kDa PEG ([Desaminohistidyl]SEGTFTSDVSSYLEEQAAKEFIC(PEG 40 kDa)WLVKGRPSSGAPPPS-NH2)
blood glucose concentrations compared with vehicle control [5]: less as compared to the blood glucose levels of mice injected with vehicle control
total efficacy as measured over a week study [6]: comparable
total food intake ([6]; seven days): decreased

Peptide G-Peg: pegylated prodrug, d-Phe-d-Val ester-linked to the Ser at position 8 ([Desaminohistidyl]S([dV-dF])EGTFTSDVSSYLEEQAAKEFIC(PEG 40 kDa)WLVKGRPSSGAPPPS-NH2)
blood glucose concentrations compared with vehicle control [5]: less as compared to the blood glucose levels of mice injected with vehicle control
total efficacy as measured over a week study [6]: comparable
total food intake ([6]; seven days): decreased

Peptide G: prodrug of Peptide F, d-Phe-dVal ester-linked to the Ser at position 2 of Peptide F ([Desaminohistidyl]S([dV-dF])EGTFTSDVSSYLEEQAAKEFIAWLVKGRPSSGAPPPS-NH2; SMILES CC[C@H](C)[C@H](NC(=O)[C@H](Cc1ccccc1)NC(=O)[C@H](CCC(=O)O)NC(=O)[C@H](CCCCN)NC(=O)[C@H](C)NC(=O)[C@H](C)NC(=O)[C@H](CCC(N)=O)NC(=O)[C@H](CCC(=O)O)NC(=O)[C@H](CCC(=O)O)NC(=O)[C@H](CC(C)C)NC(=O)[C@H](Cc1ccc(O)cc1)NC(=O)[C@H](CO)NC(=O)[C@H](CO)NC(=O)[C@@H](NC(=O)[C@H](CC(=O)O)NC(=O)[C@H](CO)NC(=O)[C@@H](NC(=O)[C@H](Cc1ccccc1)NC(=O)[C@@H](NC(=O)CNC(=O)[C@H](CCC(=O)O)NC(=O)[C@H](COC(=O)[C@H](NC(=O)[C@H](N)Cc1ccccc1)C(C)C)NC(=O)CCc1c[nH]cn1)[C@@H](C)O)[C@@H](C)O)C(C)C)C(=O)N[C@@H](C)C(=O)N[C@@H](Cc1c[nH]c2ccccc12)C(=O)N[C@@H](CC(C)C)C(=O)N[C@H](C(=O)N[C@@H](CCCCN)C(=O)NCC(=O)N[C@@H](CCCNC(=N)N)C(=O)N1CCC[C@H]1C(=O)N[C@@H](CO)C(=O)N[C@@H](CO)C(=O)NCC(=O)N[C@@H](C)C(=O)N1CCC[C@H]1C(=O)N1CCC[C@H]1C(=O)N1CCC[C@H]1C(=O)N[C@@H](CO)C(N)=O)C(C)C)
blood glucose after glucose injection compared with corresponding non-prodrug form [5]: higher than the blood glucose levels of mice injected with its corresponding non-prodrug form

Peptide Y: GLP-1 with AIB at 8, Glu at 22, Cys at 30 linked to 40 kDa PEG, Exendin 4 extension (H[Aib]EGTFTSDVSSYLEEQAAKEFIC(PEG 40 kDa)WLVKGRPSSGAPPPS-NH2)
blood glucose concentrations compared with vehicle control [5]: less as compared to the blood glucose levels of mice injected with vehicle control
total food intake ([6]; seven days): decreased
potency in decreasing appetite and decreasing body weight ([6]; seven days, FIGS. 16, 17): most potent of the four peptides

Peptide Z: pegylated (40 kDa) GLP-1-based prodrug, d-Phe-d-Val ester-linked to Ser at position 11 (H[Aib]EGS([dV-dF])FTSDVSSYLEEQAAKEFIC(PEG 40 kDa)WLVKGRPSSGAPPPS-NH2)
blood glucose concentrations compared with vehicle control [5]: less as compared to the blood glucose levels of mice injected with vehicle control
total food intake ([6]; seven days): decreased
